Read-outs that look alike come from different tables or passages of the source. Values belong to the molecule of their own block, whether it stands above or below them.
Tests used:
[1] = molecular target: T1, Human Serum Albumin (HSA) (Homo sapiens, UniProt P02768); assay: biochemical; settings: for Interaction with HSA by ITC binding heat effects: 30 μM protein, 1.5 mM ligand
Experimental: FIG. 3. Isothermal titration calorimetry (ITC) data measured on the binding of tryptophan analogues to HSA. […] Dilution heats were collected in blank titrations and were subtracted from the data. […] The solid line represents a calculated curve using the best-fit parameters obtained by a nonlinear least-squares fit to the measured data.
ITC Experiments. […] Heats of dilution were measured in blank titrations by injecting the […] into the buffer used in the particular experiment and were subtracted from the binding heats. Thermodynamic parameters were determined by non-linear least squares methods using routines included in the Origin software package (MicroCal).

[2] = molecular target: T1, Human Serum Albumin (HSA); assay: One-dimensional WaterLOGSY NMR spectra of methyl-tryptophan derivatives with HSA; assay type: binding; design: purchased Sigma A-3782; settings: 50 μM compound, 5 μM HSA, PBS pH 7.4, 293 K
Experimental: FIG. 2. […] Positive and negative signals identify HSA binding and noninteracting molecules, respectively.
Diazepam was purchased from Carlo Erba. The NMR samples were in phosphate buffered saline (PBS) buffer (Sigma) pH 7.4. D2O was added to the solutions (8% final concentration) for the lock signal.
(§1) NMR Experiments. […] For each sample a reference spectrum and a ID WaterLOGSY spectrum were recorded. […] The 1st water selective 180° pulse was 25 milliseconds (ms) long. A weak rectangular PFG is applied during the entire length of the mixing time (1.5 seconds (s)). A short gradient recovery time of 2 ms was introduced at the end of the mixing time before the detection pulse. […] The gradient recovery time was 0.2 s. […] Prior to Fourier transformation the data were multiplied with an exponential function with a line broadening of 1 Hz.
Therefore in an effort to identify a potential reference molecule, three methyl-tryptophan derivatives, namely 5-CH3, 6-CH3, and 7-CH3 Trp, were selected.

[3] = molecular target: T1, Human Serum Albumin (HSA); assay: c-WaterLOGSY competition binding experiment, displacement of reference compound 6-CH3 Trp from HSA; design: purchased Sigma A-3782
Experimental: as §1

[4] = molecular target: Human Serum Albumin (HSA) site II (Homo sapiens, UniProt P02768); settings: literature knowledge; cited from earlier work
Human Serum Albumin (HSA) site II, sequence (P02768 25-609): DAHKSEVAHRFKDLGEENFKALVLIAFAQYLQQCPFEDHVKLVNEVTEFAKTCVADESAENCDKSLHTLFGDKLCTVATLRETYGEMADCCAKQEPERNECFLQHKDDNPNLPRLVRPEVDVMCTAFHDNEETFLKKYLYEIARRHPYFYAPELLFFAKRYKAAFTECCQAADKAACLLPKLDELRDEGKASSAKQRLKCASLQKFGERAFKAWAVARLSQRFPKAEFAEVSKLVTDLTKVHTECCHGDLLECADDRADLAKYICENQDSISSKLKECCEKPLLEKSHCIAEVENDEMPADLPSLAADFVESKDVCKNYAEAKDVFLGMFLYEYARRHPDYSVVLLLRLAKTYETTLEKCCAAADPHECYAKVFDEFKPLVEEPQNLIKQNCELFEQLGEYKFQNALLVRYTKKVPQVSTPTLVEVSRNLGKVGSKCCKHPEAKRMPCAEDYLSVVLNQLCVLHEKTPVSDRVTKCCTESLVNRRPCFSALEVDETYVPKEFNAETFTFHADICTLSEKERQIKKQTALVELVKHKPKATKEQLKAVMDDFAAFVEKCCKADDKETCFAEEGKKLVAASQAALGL

T1 sequence (P02768 25-609): as above

Interaction with HSA by ITC binding heat effects ([1]; PBS, 298 K): No net binding heat effects
Interaction with HSA by sign of WaterLOGSY signal (positive = binding, negative = noninteracting) [2]: do not interact with the protein
Signal intensity change of the 6-CH3 Trp reference WaterLOGSY signal in presence of the competitor ([3]; 10 μM competitor, 50 μM 6-CH3 D,L Trp, 5 μM HSA): No signal intensity change
Structure (SMILES): Cc1cccc2c(CC(N)C(=O)O)c[nH]c12 (racemic) [7-CH3 Trp, 7-CH3-D,L-Trp]

Signal intensity change of the 6-CH3 Trp reference WaterLOGSY signal in presence of the competitor [3]: No signal intensity change
Structure (SMILES): OC[C@H]1O[C@@](CO)(O[C@H]2O[C@H](CO)[C@@H](O)[C@H](O)[C@H]2O)[C@@H](O)[C@@H]1O [Sucrose]

More lines, now with the values behind:

Structure (SMILES): Cc1ccc2[nH]cc(CC(N)C(=O)O)c2c1 (racemic) [5-CH3 Trp, 5-CH3-D,L-Trp]
Interaction with HSA by ITC binding heat effects ([1]; PBS, 298 K): No net binding heat effects
Interaction with HSA by sign of WaterLOGSY signal (positive = binding, negative = noninteracting) [2]: do not interact with the protein

Structure (SMILES): Cc1ccc2c(CC(N)C(=O)O)c[nH]c2c1 (racemic) [6-CH3 Trp, 6-CH3-D,L-Trp]
Kd [1]: 37 µM
association binding constant (KB) [1]: 2.7±0.2 10^4 Mol^−1
Interaction with HSA by ITC binding heat effects ([1]; PBS, 298 K): negative binding heats were observed
ΔH^obs ([1]; ITC, 298 K, PBS): 7.95 ± 0.42 kJ/mol
ΔS ([1]; ITC, 298 K, PBS): 13.79 cal/(mol K)
Interaction with HSA by sign of WaterLOGSY signal (positive = binding, negative = noninteracting) [2]: ligand for HSA

Structure (SMILES): N[C@@H](Cc1c[nH]c2ccccc12)C(=O)O [tryptophan]
Binding site on HSA [4]: binds also on site II of HSA

From patent publication US20040072211A1, “Methods for identifying ligands using waterlogsy NMR” (PHARMACIA & UPJOHN COMPANY, priority 2002, published 2004)
